The values that follow come from US7273713B2, “Methods of modulating mitochondrial NAD-dependent deacetylase” (The Regents of the University of California, priority 2002, dated 2007).

For assay [1], the target named is T1, hSIRT3 (Homo sapiens, UniProt Q9NTG7).
T1 construct: proteolytically cleaved by mitochondrial matrix processing peptidase (MPP) between residues Ser101 and Ilel02; expressed in transfected cells; host or cells: HEK293T cells, mitochondrial lysate in TXIP-1 buffer
T1 sequence (Q9NTG7 102-399 limits assumed): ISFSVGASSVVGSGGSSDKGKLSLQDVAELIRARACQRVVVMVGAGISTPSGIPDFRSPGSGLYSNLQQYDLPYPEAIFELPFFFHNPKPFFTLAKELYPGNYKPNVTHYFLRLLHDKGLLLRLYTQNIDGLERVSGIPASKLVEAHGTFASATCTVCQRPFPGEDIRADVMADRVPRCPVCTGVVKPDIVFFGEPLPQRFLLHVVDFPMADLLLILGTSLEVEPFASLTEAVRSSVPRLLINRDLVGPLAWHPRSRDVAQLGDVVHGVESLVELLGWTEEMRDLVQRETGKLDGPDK
Briefly: In vitro deacetylase assay on mitochondrial lysates of hSIRT3-transfected cells. The format is biochemical. The following applies: lysates of hSIRT3-transfected HEK293T cells, compared with untransfected lysates.
Description: Deacetylase assays were performed in a total volume of 100 μl SIRT deacetylase buffer (4 mM MgCl2, 0.2 mM dithiothreitol, 50 mM Tris-HCl, pH 9.0) containing immunoprecipitated proteins or mitochondrial lysates and a peptide corresponding to the first the first 22 amino acids of histone 4 chemically acetylated in vitro (27). Where indicated, 1 mM NAD, 5 mM nicotinamide (both from Sigma, St. Louis, Mo.) or 400 nM TSA (WAKO, Richmond, Va.) were added. Deacetylation reactions were stopped after 2 hours of incubation at room temperature by adding 25 μl stop solution (0.1 M HCl, 0.16 M acetic acid). Released acetate was extracted into 500 μl ethyl acetate and samples were vigorously shaken for 15 minutes. After centrifugation for 5 minutes, 400 μl of the ethyl acetate fraction was mixed with 5 ml scintillation fluid (Packard, Meriden, Conn.) and the released radioactivity was measured using a liquid scintillation counter.
In vitro deacetylase activities of equal amounts of mitochondrial lysate are shown.

The test system of assay [2] is NAD-dependent deacetylase activity in human mitochondrial fractions prepared from HEK293T cells. The assay can be described thus: In vitro deacetylase assay on mitochondrial lysates, acetylated histone H4 peptide. The following applies: NAD 1 mM, 2 hrs.
For assay [3], the system named is import of hSIRT3 into isolated mammalian mitochondria. The assay can be described thus: Import of radiolabeled hSIRT3 into isolated mitochondria. The following applies: antimycin 8 μM, oligomycin 20 μM and valinomycin 1 μM added together to dissipate the transmembrane potential. As to the method:
Import into isolated mitochondria was carried out as previously reported (22). Proteins were synthesized in the presence of [^35S]-methionine by coupled transcription-translation in reticulocyte lysate (Promega, Madison, Wis.) (23). In vitro translation reactions were centrifuged at 108,000×g, 2° C. for 15 min and adjusted to 250 mM sucrose. Import reactions contained 5% (v/v) reticulocyte lysate in import buffer (3% (w/v) fatty-acid free bovine serum albumin (BSA), 250 mM sucrose, 80 mM KCl, 5 mM MgCl2, 2 mM KH2PO4, 5 mM L-methionine, 10 mM 3-[N-morpholino]propanesulfonic acid-KOH, pH 7.2). In each import reaction, 50 μg of freshly isolated mammalian mitochondria were mixed with radiolabeled proteins and incubated at 30° C. ATP (2 mM) and sodium succinate (10 mM) were added to maintain coupling of isolated mitochondria. Import was stopped by addition of valinomycin (1 μM) and transfer to 0°C.
Where indicated, samples were treated with proteinase K (50 μg/ml) for 10 min on ice. Protease treatment was stopped by addition of 2 mM phenylmethylsulfonyl fluoride (PMSF). Mitochondria were reisolated by centrifugation at 10,000×g for 5 min at 4° C., washed in SEM buffer and recentrifuged as above. Mitochondrial pellets were resuspended in SDS sample buffer containing dithiothreitol (DTT) and heated to 95° C. for 5 min. Samples were subjected to SDS-PAGE. Dried gels were exposed to Biomax MR film (Kodak, Rochester, N.Y.) at −70° C. and analyzed on a Fuji FUJIX BAS 1000 phosphorimager. […]
FIG. 4. […] After reisolation of mitochondria and SDS-PAGE, the amounts of imported proteins were quantified by phosphorimaging. FIG. 4B, Quantitation of imported protein by phosphorimaging. […] Reisolated and washed mitochondria were lysed in SDS sample buffer and analyzed by SDS-PAGE. […] FIG. 4E, Import efficiency of individual hSIRT3 mutants was quantitated in relation to their standards by phosphorimaging. […]

Regarding `CC(/C=C/C(=O)NO)=C\[C@@H](C)C(=O)c1ccc(N(C)C)cc1` [TSA, trichostatin A], the “sensitivity of deacetylase activity of mitochondrial lysates overexpressing hSIRT3” value in assay [1] is given as “same properties as untransfected mitochondrial lysates”. For the same compound, the “effect on NAD-dependent deacetylase activity of mitochondrial lysate” value in assay [2] (TSA 400 nM) was “no effect”. On to `NC(=O)c1cccnc1` [nicotinamide], for which, in assay [2] (nicotinamide 5 mM), the “effect on NAD-dependent deacetylase activity of mitochondrial lysate” value is recorded as “suppressed”. Regarding `CC[C@H]1/C=C/C=C/C[C@@H](C)[C@H](O)[C@@](C)(O)C(=O)[C@@H](C)[C@H](O)[C@@H](C)C(=O)[C@@H](C)[C@H](O)[C@@H](C)/C=C/C(=O)O[C@@H]2[C@H](C)[C@H](CC1)O[C@]1(CC[C@H](C)[C@H](C[C@@H](C)O)O1)[C@H]2C` [oligomycin], the “effect on import of hSIRT3 across the mitochondrial membrane” value (shortened to “effect on import”) in assay [3] is given as “inhibited”. For the compound `CC(C)[C@@H]1NC(=O)[C@H](C)OC(=O)[C@@H](C(C)C)NC(=O)[C@@H](C(C)C)OC(=O)[C@H](C(C)C)NC(=O)[C@H](C)OC(=O)[C@@H](C(C)C)NC(=O)[C@@H](C(C)C)OC(=O)[C@H](C(C)C)NC(=O)[C@H](C)OC(=O)[C@@H](C(C)C)NC(=O)[C@@H](C(C)C)OC1=O` [valinomycin], in assay [3], the “effect on import” value is listed as “inhibited”. In the case of antimycin, the “effect on import” value in assay [3] is given as “inhibited”.
